Literature values in patent publication US8257918B2, “Intelligent nanomedicine integrating diagnosis and therapy” (The Regents of the University of California, priority 2004, dated 2012).

Columns and labels:
tumor = settings: comparison with doxorubicin

Row | SMILES | cumulative doses that engender a substantial risk of cardiotoxicity | anti-tumor efficiency relative to doxorubicin (tumor)
1 | COc1cccc2c1C(=O)c1c(O)c3c(c(O)c1C2=O)C[C@@](O)(C(=O)CO)C[C@@H]3O[C@H]1C[C@H](N)[C@H](O)[C@H](C)O1 [doxorubicin] | exceed 550 mg/m^2 | –
2 | COc1cccc2c1C(=O)c1c(O)c3c(c(O)c1C2=O)C[C@@](O)(C(=O)CO)C[C@@H]3O[C@H]1C[C@H](NC(=O)[C@@H](N)CC(C)C)[C@H](O)[C@H](C)O1 [Leu-Dox, N-1-leucyl-doxorubucin] | – | more efficient anti-tumor agents than doxorubicin
